Measurements reported in paper PMC8802806, “Synthesis and Antitumor Activity of Erlotinib Derivatives Linked With 1,2,3-Triazole” (Frontiers in Pharmacology, 2022).
“And” between values parts separate entries of the source, which are not always exact repeats. Equal values may be shown once. Read-outs that look alike come from different tables or passages of the source.

Legend:
HeLa cells [1] = assay: Flow cytometry detection for cell apoptosis (Annexin V/PI); assay type: cell-based, human; details: for Q1 (flow cytometry quadrant, Figure 4A) / Q4 (flow cytometry quadrant, Figure 4A) / Q2: FITC-A+ , PE-A+ Freq. of Parent / Q3: FITC-A+ , PE-A- Freq. of Parent / cell apoptosis in HeLa cells, percentage: 72 h; for Q1 (flow cytometry quadrant, Figure 4A) / Q4 (flow cytometry quadrant, Figure 4A) / Q2: FITC-A+ , PE-A+ Freq. of Parent / Q3: FITC-A+ , PE-A- Freq. of Parent: Annexin V/PI; for Q2: FITC-A+ , PE-A+ Freq. of Parent / Q3: FITC-A+ , PE-A- Freq. of Parent / Q2+Q3 (column without head, sum on percent scale): single samples; for cell apoptosis in HeLa cells, percentage: three independent experiments
Experimental: Cell-apoptosis analysis was carried out by flow cytometry using the Annexin V/PI apoptosis kit (Solarbio, China) according to the manufacturer’s manual. Briefly, HeLa (5 × 10^4/well) cells were seeded in 12-well plates for 24 h and then treated with 0.1% DMSO (as control) or various concentrations of compounds 4d, 4k, and 4l for 72 h, respectively. Cells were harvested, washed with PBS, and then incubated with 100 μl of 1 × Annexin V binding buffer containing 1 μl FITC Annexin V for 10 min at RT in the dark. Cells were incubated for another 5 min at room temperature (RT) in the dark after 1 μl PI was added. PBS (200 µl) was added to each tube for flow cytometry analysis (BriCyte E6). The percentages of apoptotic cells were analyzed using FlowJo soft.

HeLa cells [2] = assay: Cell antiproliferative activity assay (CCK8); assay type: cell-based, human; details: for inhibition at 0.25 µM: 250 nM; for inhibition at 0.5 µM: 500 nM; for inhibition at 1 µM: 1000 nM; for inhibition at 2 µM: 2000 nM; for inhibition at 4 µM: 4000 nM; for inhibition at 8 µM: 8000 nM; for inhibition at 16 µM: 16000 nM
Experimental: Cell antiproliferative activity was evaluated by the Cell Counting Kit-8 (CCK8, DOJINDO, Japan) assay. The cells were seeded at a density of 2,000 cells per well into 96-well microplate in 100 μl of growth medium. Cells were incubated at 37°C and 5% CO2 overnight. The next day, 100 μl per well of diluted inhibitor in growth medium was added with the final concentration from 0.1 nM to 100 μM. The cells were treated with DMSO as control. A series of dilutions are made in 0.1% DMSO in assay medium so that the final concentration of DMSO is 0.1% in all of treatments. Cells were incubated at 37°C and 5% CO2 for 48 h. Then, 10 μl of CCK8 was added to each well. The plates were incubated at 37°C for 2 h; after that, the plates were recorded by measuring absorbance at 450 nm with the reference wavelength of 630 nm using an EnVision Multilabel Reader (PerkinElmer). The IC50 values were calculated using GraphPad Prism 6.0 software and determined by the concentration causing a half-maximal percent activity. All assays were conducted with three parallel samples and three repetitions.

HeLa cells [3] = assay: Colony formation assay; assay type: cell-based, human; details: for effect on cell colony formation: 2 weeks; for Number of Colonies /well: repeats 1-3
Experimental: HeLa cells were seeded in six-well plates at the density of 500/well for 24 h, and then treated with 0.1% DMSO (as control), various concentrations of compounds 4d, 4k, and 4l, respectively. The cells were incubated for 2 weeks in a 5% CO2 environment at 37°C for colony formation. The media was gently removed from each of the plates, and then each plate was washed with PBS twice. The colonies were fixed with 4% polyformaldehyde for 10 min and then wash the cells with ddH2O twice. Stain with 1 ml Crystal Violet Staining Solution (Beyotime, China) for 10 min. Wash excess crystal violet with ddH2O and allow dishes to dry. Take pictures of the plate and count the colonies.

[4] = Homo sapiens, HeLa, 48 h, HeLa cells, CCK8, 48 h, mean ± SD, n = 3, read-out: IC50 (μM) HeLa
[5] = Homo sapiens, HeLa, HELA 2000cells/well, supplement DataSheet2, Repeat1, read-out: IC50 Repeat1
[6] = Homo sapiens, HeLa, HELA 2000cells/well, supplement DataSheet2, Repeat 2, read-out: IC50 Repeat 2
[7] = Homo sapiens, HeLa, HELA 2000cells/well, supplement DataSheet2, mean of two repeats ± SD, read-out: IC50 mean±SD
[8] = Homo sapiens, HELA 2000cells/well, Repeat1, read-out: Inhibition (%) Repeat1
[9] = Homo sapiens, HELA 2000cells/well, Repeat2, read-out: Inhibition (%) Repeat2

Structure (SMILES): COCCOc1cc2ncnc(Nc3cccc(-c4cn(Cc5cc(Br)cc(Br)c5)nn4)c3)c2cc1OCCOC [Compound 4d, [6,7-Bis-(2-methoxy-ethoxy)-quinazolin-4-yl]-{3-[1-(3,5-dibromo-benzyl)-1H-[1,2,3]triazol-4-yl]-phenyl}-amine]
- Q1 (flow cytometry quadrant, Figure 4A) (HeLa cells [1]; 3 μM): 5.78%
- Q4 (flow cytometry quadrant, Figure 4A) (HeLa cells [1]; 3 μM): 84.2%
- Q2: FITC-A+ , PE-A+ Freq. of Parent (HeLa cells [1]; 3 μM): 9.25%
- Q3: FITC-A+ , PE-A- Freq. of Parent (HeLa cells [1]; 3 μM): 0.82%
- Q2: FITC-A+ , PE-A+ Freq. of Parent (HeLa cells [1]; 3 μM, listed as e4): 6.79% and 7.35% and 9.25%
- Q3: FITC-A+ , PE-A- Freq. of Parent (HeLa cells [1]; 3 μM, listed as e4): 1.73% and 1.08% and 0.82%
- Q2+Q3 (column without head, sum on percent scale) (HeLa cells [1]; 3 μM, listed as e4): 8.52 and 8.43 and 10.07
- Q1 (flow cytometry quadrant, Figure 4A) (HeLa cells [1]; 6 μM): 5.52%
- Q4 (flow cytometry quadrant, Figure 4A) (HeLa cells [1]; 6 μM): 81.2%
- Q2: FITC-A+ , PE-A+ Freq. of Parent (HeLa cells [1]; 6 μM): 10.5%
- Q3: FITC-A+ , PE-A- Freq. of Parent (HeLa cells [1]; 6 μM): 2.69%
- Q2: FITC-A+ , PE-A+ Freq. of Parent (HeLa cells [1]; 6 μM, listed as e4): 8.90% and 10.1% and 10.5%
- Q3: FITC-A+ , PE-A- Freq. of Parent (HeLa cells [1]; 6 μM, listed as e4): 3.61% and 5.29% and 2.69%
- Q2+Q3 (column without head, sum on percent scale) (HeLa cells [1]; 6 μM, listed as e4): 12.51 and 15.39 and 13.19
- Q1 (flow cytometry quadrant, Figure 4A) (HeLa cells [1]; 12 μM): 2.40%
- Q4 (flow cytometry quadrant, Figure 4A) (HeLa cells [1]; 12 μM): 5.68%
- Q2: FITC-A+ , PE-A+ Freq. of Parent (HeLa cells [1]; 12 μM): 86.4%
- Q3: FITC-A+ , PE-A- Freq. of Parent (HeLa cells [1]; 12 μM): 5.49%
- Q2: FITC-A+ , PE-A+ Freq. of Parent (HeLa cells [1]; 12 μM, listed as e4): 86.4% and 80.4% and 81.8%
- Q3: FITC-A+ , PE-A- Freq. of Parent (HeLa cells [1]; 12 μM, listed as e4): 5.49% and 3.94% and 3.82%
- cell apoptosis in HeLa cells, percentage (HeLa cells [1]; 12 μM): 87.28%
- Q2+Q3 (column without head, sum on percent scale) (HeLa cells [1]; 12 μM, listed as e4): 91.89 and 84.34 and 85.62
- IC50 (HeLa cells [2]; [4]): 7.02 ± 0.04 µM
- IC50 (HeLa cells [2]; [5]): 7.07 µM
- IC50 (HeLa cells [2]; [6]): 6.98 µM
- IC50 (HeLa cells [2]; [7]): 7.025 ± 0.0445 µM
- inhibition at 0.25 µM (HeLa cells [2]; [8]): 9.75%
- inhibition at 0.25 µM (HeLa cells [2]; [9]): 0%
- inhibition at 0.5 µM (HeLa cells [2]; [8]): 13%
- inhibition at 0.5 µM (HeLa cells [2]; [9]): 13.6%
- inhibition at 1 µM (HeLa cells [2]; [8]): 16.9%
- inhibition at 1 µM (HeLa cells [2]; [9]): 14%
- inhibition at 2 µM (HeLa cells [2]; [8]): 17%
- inhibition at 2 µM (HeLa cells [2]; [9]): 15.3%
- inhibition at 4 µM (HeLa cells [2]; [8]): 25.3%
- inhibition at 4 µM (HeLa cells [2]; [9]): 26.6%
- inhibition at 8 µM (HeLa cells [2]; [8]): 53.2%
- inhibition at 8 µM (HeLa cells [2]; [9]): 54.6%
- inhibition at 16 µM (HeLa cells [2]; [8]): 78.2%
- inhibition at 16 µM (HeLa cells [2]; [9]): 78.4%
- effect on cell colony formation (HeLa cells [3]; 6 μM): decrease the number of colonies
- effect on cell colony formation (HeLa cells [3]; 12 μM): entirely inhibited
- Number of Colonies /well (HeLa cells [3]; 12 uM): 0

Structure (SMILES): COCCOc1cc2ncnc(Nc3cccc(-c4cn(-c5ccc(C)cc5)nn4)c3)c2cc1OCCOC [Compound 4l, [6,7-Bis-(2-methoxy-ethoxy)-quinazolin-4-yl]-[3-(1-p-tolyl-1H-[1,2,3]triazol-4-yl)-phenyl]-amine]
- Q1 (flow cytometry quadrant, Figure 4A) (HeLa cells [1]; 3 μM): 3.78%
- Q4 (flow cytometry quadrant, Figure 4A) (HeLa cells [1]; 3 μM): 84.8%
- Q2: FITC-A+ , PE-A+ Freq. of Parent (HeLa cells [1]; 3 μM): 9.69%
- Q3: FITC-A+ , PE-A- Freq. of Parent (HeLa cells [1]; 3 μM): 1.71%
- Q2: FITC-A+ , PE-A+ Freq. of Parent (HeLa cells [1]; 3 μM, listed as e12): 9.69% and 6.86% and 8.36%
- Q3: FITC-A+ , PE-A- Freq. of Parent (HeLa cells [1]; 3 μM, listed as e12): 1.71% and 1.25% and 0.95%
- Q2+Q3 (column without head, sum on percent scale) (HeLa cells [1]; 3 μM, listed as e12): 11.4 and 8.11 and 9.31
- Q1 (flow cytometry quadrant, Figure 4A) (HeLa cells [1]; 6 μM): 3.76%
- Q4 (flow cytometry quadrant, Figure 4A) (HeLa cells [1]; 6 μM): 83.5%
- Q2: FITC-A+ , PE-A+ Freq. of Parent (HeLa cells [1]; 6 μM): 11.1%
- Q3: FITC-A+ , PE-A- Freq. of Parent (HeLa cells [1]; 6 μM): 1.72%
- Q2: FITC-A+ , PE-A+ Freq. of Parent (HeLa cells [1]; 6 μM, listed as e12): 8.62% and 11.1% and 7.43%
- Q3: FITC-A+ , PE-A- Freq. of Parent (HeLa cells [1]; 6 μM, listed as e12): 1.73% and 1.72% and 1.32%
- Q2+Q3 (column without head, sum on percent scale) (HeLa cells [1]; 6 μM, listed as e12): 10.35 and 12.82 and 8.75
- Q1 (flow cytometry quadrant, Figure 4A) (HeLa cells [1]; 12 μM): 4.50%
- Q4 (flow cytometry quadrant, Figure 4A) (HeLa cells [1]; 12 μM): 78.5%
- Q2: FITC-A+ , PE-A+ Freq. of Parent (HeLa cells [1]; 12 μM): 14.1%
- Q3: FITC-A+ , PE-A- Freq. of Parent (HeLa cells [1]; 12 μM): 2.91%
- Q2: FITC-A+ , PE-A+ Freq. of Parent (HeLa cells [1]; 12 μM, listed as e12): 14.8% and 14.1% and 12.5%
- Q3: FITC-A+ , PE-A- Freq. of Parent (HeLa cells [1]; 12 μM, listed as e12): 2.43% and 2.91% and 2.33%
- cell apoptosis in HeLa cells, percentage (HeLa cells [1]; 12 μM): 16.36%
- Q2+Q3 (column without head, sum on percent scale) (HeLa cells [1]; 12 μM, listed as e12): 17.23 and 17.01 and 14.83
- melting point: 95 to 98 °C
- IC50 (HeLa cells [2]; HeLa cells, CCK8, 48 h, mean ± SD, n = 3, read-out: IC50 (μM) HeLa): 4.51 ± 0.08 µM
- IC50 (HeLa cells [2]; [4]): 4.36 µM
- IC50 (HeLa cells [2]; [5]): 4.41 µM
- IC50 (HeLa cells [2]; [6]): 4.58 µM
- IC50 (HeLa cells [2]; [7]): 4.51 ± 0.083 µM
- inhibition at 0.25 µM (HeLa cells [2]; [8]): 2.96%
- inhibition at 0.25 µM (HeLa cells [2]; [9]): 0%
- inhibition at 0.5 µM (HeLa cells [2]; [8]): 5.57%
- inhibition at 0.5 µM (HeLa cells [2]; [9]): 0.522%
- inhibition at 1 µM (HeLa cells [2]; [8]): 8.62%
- inhibition at 1 µM (HeLa cells [2]; [9]): 4.7%
- inhibition at 2 µM (HeLa cells [2]; [8]): 12.6%
- inhibition at 2 µM (HeLa cells [2]; [9]): 6.88%
- inhibition at 4 µM (HeLa cells [2]; [8]): 37.2%
- inhibition at 4 µM (HeLa cells [2]; [9]): 32%
- inhibition at 8 µM (HeLa cells [2]; [8]): 96.7%
- inhibition at 8 µM (HeLa cells [2]; [9]): 96.9%
- inhibition at 16 µM (HeLa cells [2]; [8]): 99%
- inhibition at 16 µM (HeLa cells [2]; [9]): 98.9%
- Number of Colonies /well (HeLa cells [3]; 6 uM): 291 and 246 and 217
- effect on cell colony formation (HeLa cells [3]; 12 μM): entirely inhibited
